Data from US7612107B2, “Treatment and inhibition of disease conditions using flexible heteroarotinoids” (The Board of Regents of the University of Oklahoma, priority 2005, dated 2009).

How the values were obtained:
ovarian cancer cells = experiment: Microarray analysis of gene expression in SHetA2-treated ovarian cancer cells; type: cell-based, Homo sapiens
Description: Microarray analysis was conducted to determine specific disease causing genes which were expressed at higher (>1 fold) or lower (<1 fold) levels than normal in ovarian cancer cells treated with SHetA2 (see Table 6).

[1] = system: blood vessel density in bFGF/VEGF-treated CAMs; experiment: Chorioallantoic membrane (CAM) assay; type: in vivo; conditions: 5 μM SHetA2
Description: FIG. 8. Effect of 5 μM SHetA2 on blood vessel density in the CAM assay. The mean±SEM blood vessel density per treatment as compared to bFGF/VEGF-treated CAMs; *=p<0.05 and **=p<0.001 as compared to bFGF/VEGF-treated CAMs as determined by one-way ANOVA and Neuman-Keuls post-test.
The CAM assay that was used is based upon the original procedure by Jakob et al. (36) with modifications made by our laboratory (37, 38) (see FIG. 8).

[2] = system: organotypic cultures of human ovarian cancer cell lines and primary cultures; experiment: Ovarian carcinoma organotypic cultures (TUNEL, histology); type: cell-based
Description: FIG. 17. Retinoid effects on ovarian carcinoma organotypic cultures. Organotypic cultures of OVCAR-3 (A, B, E, F, I and J), Caov-3 (C and G), SK-OV-3 (D and H), and O2 (K and L) were grown in the absence (−, top row and K) or presence (+, middle row and I, J and L) of retinoid HetA4 at a concentration of 1 μM in the media. All sections were stained with H&E except for […], which was stained with PAS to detect glycoproteins and glandular differentiation, and J, which was stained with the TUNEL assay to detect apoptosis. All magnifications are 40×.
To test our hypotheses, we evaluated the effects of clinically achievable concentrations of 4-HPR and Flex-Hets on growth, differentiation and apoptosis in ovarian tissue. A series of compounds with a variety of receptor activation profiles were evaluated. In order to evaluate therapeutic effects, we developed an organotypic culture model of ovarian tumors by growing established cell lines and primary cultures inside collagen gels. Monolayer cultures of cells are not accurate representations of in vivo tissue because they lack the types of interactions that cells have with other cells and with the extracellular matrix in vivo. These interactions are known to influence gene expression and thus the constitution and behavior of cells. In our organotypic model, the growth of tumor cells inside the collagen allows a representation of tumors that have invaded stromal tissue. In the presence of fibroblasts, established cell lines and primary cultures of ovarian cancer formed colonies inside the collagen, while normal or benign ovarian epithelial cells remained as single cells inside the collagen. Human ovarian cancer cell lines (OVCAR-3, Caov-3, SK-OV-3, A2780, UCI 101) and primary human cultures (borderline ovarian tumor (O1), serous papillary tumor (O2), benign ovarian cyst (O3)) were cultured inside and on top of a collagen gel seeded with 3T3 fibroblasts for one week. After further incubation in the presence or absence of 1 μM retinoid (media concentration) for 3, 7 or 14 days, cultures were fixed and sectioned for immunohistochemical analysis.
(§1) The TUNEL assay was used to evaluate apoptosis in fixed, paraffin embedded, cut sections of the treated and control cultures (FIG. 17). […] These two cellular outcomes appeared to be mutually exclusive.

[3] = system: SW962 vulvar carcinoma cultures; experiment: Annexin-V-Fluos apoptosis assay; type: cell-based; conditions: cancer cell lines
Description: SW962 vulvar carcinoma cultures were treated with 10 μM of the indicated retinoid or the same volume of solvent. At the specified times, the cultures were labeled with Annexin-V-Fluos and propidium iodide (PI), and the number of apoptotic cells was quantified using dual-laser flow cytometric analysis.
as §1

Question: How did the “Fold: Retinitis pigmentosa GTPase regulator (RPGR)” value (ovarian cancer cells; Genbank NM_000328.1, Eye Diseases) turn out when `CC1(C)CC(C)(C)c2cc(NC(=S)Nc3ccc([N+](=O)[O-])cc3)ccc2S1` [SHetA2] was run?
Answer: 0.47 Fold

Question: And the “Fold: UDP-galactose-4-epimerase in epimerase-deficiency galactosemia” value (ovarian cancer cells; Genbank NM_000403, Storage and Metabolism Deficiencies)?
Answer: 0.66 Fold

Question: What about the “Fold: Sulfite oxidase (SUOX), nuclear gene encoding mitochondrial protein” value (ovarian cancer cells; Genbank NM_000456.1) of the same compound?
Answer: 2.11 Fold

Question: What about the “Fold: Galactosamine (N-acetyl)-6-sulfate sulfatase in Morquio syndrome, mucopolysaccharidosis type IVA” value (ovarian cancer cells; Genbank NM_000512, Storage and Metabolism Deficiencies) of the same compound?
Answer: 0.52 Fold

Question: And the “Fold: Regulatory factor X-associated protein (RFXAP)in bare lymphocyte syndrome” value (ovarian cancer cells; Genbank NM_000538.1, Autoimmune Diseases)?
Answer: 0.41 Fold

Question: What about the “Fold: Endothelial cell growth factor 1 (platelet-derived)/Thymidine phosphorylase” value (ovarian cancer cells; Genbank NM_001953) of the same compound?
Answer: 0.42 Fold

Question: What about the “Fold: Figroblast growth factor 2 (basic)(FGF2)” value (ovarian cancer cells; Genbank NM_002006.1) of the same compound?
Answer: 0.35 Fold

Question: What about the “Fold: Promyelocytic leukemia (PML)” value (ovarian cancer cells; Genbank NM_002675.1, Cancer) of the same compound?
Answer: 2.76 Fold

Question: What about the “Fold: Transglutaminase 4 (prostate)” value (ovarian cancer cells; Genbank NM_003241, Cancer) of the same compound?
Answer: 0.24 Fold

Question: And the “Fold: Thrombospondin 4” value (ovarian cancer cells; Genbank NM_003248)?
Answer: 0.58 Fold

Question: And the “Fold: Thromospondin 4 (THBS4)” value (ovarian cancer cells; Genbank NM_03248.1)?
Answer: 2.58 Fold

Question: And the “Fold: Dysferlin, limb girdle muscular dystrophy 2B (autosomal recessive) (DYSF)” value (ovarian cancer cells; Genbank NM_003494.1, Skeletal Diseases)?
Answer: 2.16 Fold

Question: And the “Fold: Peroxisomal biogenesis factor 3 (PEX3)” value (ovarian cancer cells; Genbank NM_003630.1, Autoimmune Diseases)?
Answer: 0.43 Fold

Question: What about the “Fold: Fibroblast growth factor 18 (FGF18)” value (ovarian cancer cells; Genbank NM_003862.1) of the same compound?
Answer: 2.75 Fold

Question: What about the “Fold: Dystrophin (muscular dystrophy, Duchenne and Becker types), dystrophin Dp40 isoform (DMD)” value (ovarian cancer cells; Genbank NM_004019.1, Skeletal Diseases) of the same compound?
Answer: 2.76 Fold

Question: And the “Fold: Vitelliform macular dystrophy (Best disease, bestrophin) (VMD2)” value (ovarian cancer cells; Genbank NM_004183.1, Eye Diseases)?
Answer: 0.28 Fold

Question: And the “Fold: Smcx homolog, X chromosome (mouse) in nonsyndromic X-linked mental retardation” value (ovarian cancer cells; Genbank NM_004187, Neuromuscular Diseases)?
Answer: 0.61 Fold

Question: And the “Fold: Enhancer of zeste (Drosophila) homolog 2 (EZH2) (USP14)” value (ovarian cancer cells; Genbank NM_004456.1, Cancer)?
Answer: 0.47 Fold

Question: What about the “Fold: Peroxisomal biogenesis factor 14 (PEX14) in peroxisome biogenesis disorders” value (ovarian cancer cells; Genbank NM_004565.1, Neuromuscular Diseases) of the same compound?
Answer: 2.06 Fold

Question: And the “Fold: ATP-binding cassette, sub-family D (ALD), member 2 (ABCD2) in X-linked adrenoleukodystrophy” value (ovarian cancer cells; Genbank NM_005164.1, Neuromuscular Diseases)?
Answer: 2.71 Fold

Question: And the “Fold: B-cell CLLlymphoma 3 (BCL3)” value (ovarian cancer cells; Genbank NM_005178.1, Cancer)?
Answer: 2.05 Fold

Question: And the “Fold: Neuroblastoma, suppression of tumorigenicity 1 (NBL1),” value (ovarian cancer cells; Genbank NM_005380.1, Cancer)?
Answer: 3.07 Fold

Question: And the “Fold: ATP-binding cassette, sub-family B (MDRTAP), member 6 (ABCB6), nuclear gene encoding mitochondrial protein” value (ovarian cancer cells; Genbank NM_005689.1)?
Answer: 0.46 Fold

Question: And the “Fold: N-cym protein” value (ovarian cancer cells; Genbank NM_006316, Cancer)?
Answer: 2.38 Fold

Question: And the “Fold: Translocase of inner mitochondrial membrane 44 (yeast) homolog (TIM44)” value (ovarian cancer cells; Genbank NM_006351.1)?
Answer: 0.50 Fold

Question: And the “Fold: Butyrophilin, subfamily 3, member A3 (BTN3A3)” value (ovarian cancer cells; Genbank NM_006994.2, Autoimmune Diseases)?
Answer: 2.04 Fold

Question: What about the “Fold: Keratocan (KERA) involved in cornea plana” value (ovarian cancer cells; Genbank NM_007035.2, Eye Diseases) of the same compound?
Answer: 0.50 Fold

Question: What about the “Fold: Disintegrin-like and metalloprotease (reprolysin type) with thrombospondin type 1 motif (ADAMTS5)” value (ovarian cancer cells; Genbank NM_007038.1) of the same compound?
Answer: 0.23 Fold

Question: And the “Fold: Angiopoietin-like 2 (ANGPTL2)” value (ovarian cancer cells; Genbank NM_012098.1)?
Answer: 2.16 Fold

Question: And the “Fold: Nasopharyngeal carcinoma susceptibility protein (LZ16)” value (ovarian cancer cells; Genbank NM_013275.1, Cancer)?
Answer: 0.41 Fold

Question: What about the “Fold: Trichorhinophalangeal syndrome I gene (TRPS1)” value (ovarian cancer cells; Genbank NM_014112.1, Skeletal Diseases) of the same compound?
Answer: 0.36 Fold

Question: And the “Fold: Rhabdoid tumor deletion region protein 1 (RTDR1)” value (ovarian cancer cells; Genbank NM_014433.1, Cancer)?
Answer: 2.20 Fold

Question: And the “Fold: Amyotrophic lateral sclerosis 2 (juvenile) chromosome region, candidate 3 (ALS2CR3)” value (ovarian cancer cells; Genbank NM_015049.1, Neuromuscular Diseases)?
Answer: 0.41 Fold

Question: What about the “Fold: Chromosome 5 open reading frame 4 (C5ORF4), putative tumor suppressor” value (ovarian cancer cells; Genbank NM_016348.1, Cancer) of the same compound?
Answer: 2.76 Fold

Question: And the “Fold: Niban protein (NIBAN) (Renal carcinogenesis)” value (ovarian cancer cells; Genbank NM_022083.1, Cancer)?
Answer: 0.21 Fold

Question: And the “Fold: RNA binding motif protein 5, putative tumor suppressor (LUCA15)” value (ovarian cancer cells; Genbank U23946.1, Cancer)?
Answer: 0.43 Fold

Question: What about the “Fold: A kinase anchor protein S-AKAP84 mRNA, nuclear gene encoding mitochondrial protein” value (ovarian cancer cells; Genbank U34074.1) of the same compound?
Answer: 2.14 Fold

Question: And the “Fold: Unknown protein mRNA within the p53 intron 1” value (ovarian cancer cells; Genbank U58658.1, Cancer)?
Answer: 0.45 Fold

Question: What about the “Angiogenesis (blood vessel density) in CAM assay” value [1] of the same compound?
Answer: inhibits angiogenesis

Question: And the “Induction of apoptosis (TUNEL) in organotypic cultures” value ([2]; 1 μM retinoid in media)?
Answer: Apoptosis was induced

Question: What about the “Level of apoptosis relative to the other retinoids (TUNEL)” value ([2]; 1 μM retinoid in media) of the same compound?
Answer: highest level of apoptosis

Question: And the “Rank as regulator of growth, differentiation and apoptosis among eleven retinoids” value ([2]; 1 μM, 3, 7 or 14 days)?
Answer: most potent regulator of growth, differentiation and apoptosis

Question: What about the “Induction of apoptosis (Annexin-V-Fluos)” value [3] of the same compound?
Answer: same concentration range as 4-HPR
